Literature values as cited in paper PMC5879685 (Proceedings of the National Academy of Sciences of the …, 2018).

Key:
[1] = system: PKG
[2] = system: CNGC

Row | Compound | Effect on PKG [1] | Effect on CNGC [2]
1 | Nc1nc2c(ncn2[C@@H]2O[C@@H]3COP(O)(=S)O[C@H]3[C@H]2O)c(=O)[nH]1 (single isomer, unassigned) [B, Guanosine-3′,5′-cyclic monophosphorothioate, RP-isomer] | − | +
2 | Nc1nc2c(nc(Br)n2[C@@H]2O[C@@H]3COP(O)(=S)O[C@H]3[C@H]2O)c(=O)[nH]1 (single isomer, unassigned) [C, 8-bromoguanosine-3′,5′-cyclic monophosphorothioate, RP-isomer] | − | +
3 | Nc1nc2c(ncn2[C@@H]2O[C@@H]3COP(=O)(O)O[C@H]3[C@H]2O)c(=O)[nH]1 [Compound A, Guanosine-3′,5′-cyclic monophosphate] | + | +
